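Five compound concentrations were applied to cells in 96-well plates for 48 hours; endpoints were derived by simple linear interpolation of the resulting dose-response curve. Abbreviation: GI50, concentration required for 50% inhibition of growth.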 Activity calls are given as the source filed them. Rule as the data show it: active = GI50 up to about 1.1 µM and inactive = higher.
Columns and labels:
Experiment in all cases: inhibition of tumour cell growth, NCI panel, 48 h
SN12C = tested on: SN12C
UACC-62 = tested on: UACC-62
UACC-257 = tested on: UACC-257
HOP-92 = tested on: HOP-92
CAKI-1 = tested on: CAKI-1
EKVX = tested on: EKVX
HT-29 = tested on: HT-29
M14 = tested on: M14
SR = tested on: SR
TK-10 = tested on: TK-10
LOX IMVI = tested on: LOX IMVI
U-251 = tested on: U-251
NCI-H23 = tested on: NCI-H23
NCI-H460 = tested on: NCI-H460
HOP-62 = tested on: HOP-62
OVCAR-4 = tested on: OVCAR-4

| Structure (SMILES) | GI50 (SN12C) | GI50 (UACC-62) | GI50 (UACC-257) | GI50 (HOP-92) | GI50 (CAKI-1) | GI50 (EKVX) | GI50 (HT-29) | GI50 (M14) | GI50 (SR) | GI50 (TK-10) | GI50 (LOX IMVI) | GI50 (U-251) | GI50 (NCI-H23) | GI50 (NCI-H460) | GI50 (HOP-62) | GI50 (OVCAR-4) |
| --- | --- | --- | --- | --- | --- | --- | --- | --- | --- | --- | --- | --- | --- | --- | --- | --- |
| CCOc1ccccc1NC(=O)CCc1n[nH]c(=S)o1 | > 100 µM (inactive) | > 100 µM (inactive) | > 100 µM (inactive) | > 100 µM (inactive) | > 100 µM (inactive) | > 100 µM (inactive) | > 100 µM (inactive) | > 100 µM (inactive) | > 100 µM (inactive) | > 100 µM (inactive) | > 100 µM (inactive) | > 100 µM (inactive) | > 100 µM (inactive) |  |  |  |
| CCCCCn1cnc2c1S(=O)(=O)N(C)C(NC(=O)c1ccccc1)=N2 | > 100 µM (inactive) | > 100 µM (inactive) | > 100 µM (inactive) | > 100 µM (inactive) | > 100 µM (inactive) | > 100 µM (inactive) | > 100 µM (inactive) |  | > 100 µM (inactive) | > 100 µM (inactive) | > 100 µM (inactive) | > 100 µM (inactive) | > 100 µM (inactive) | > 100 µM (inactive) | > 100 µM (inactive) | > 100 µM (inactive) |
| Cc1ccc(S(=O)(=O)NNS(C)(=O)=O)cc1 | > 100 µM (inactive) | > 100 µM (inactive) | > 100 µM (inactive) |  | > 100 µM (inactive) | > 100 µM (inactive) | > 100 µM (inactive) | > 100 µM (inactive) | > 100 µM (inactive) | > 100 µM (inactive) | > 100 µM (inactive) | > 100 µM (inactive) | > 100 µM (inactive) | > 100 µM (inactive) | > 100 µM (inactive) | > 100 µM (inactive) |
| O=CC(O)C(O)C(O)COc1cc(CO)cc2c1C(=O)c1ccccc1C2=O (stereo unspecified) | > 100 µM (inactive) | > 95.1 µM (inactive) | > 100 µM (inactive) | > 100 µM (inactive) | > 93.8 µM (inactive) | > 100 µM (inactive) | > 100 µM (inactive) | > 100 µM (inactive) | > 88.3 µM (inactive) | > 100 µM (inactive) | 99.1 µM (inactive) | > 100 µM (inactive) | > 100 µM (inactive) | > 87.3 µM (inactive) | > 100 µM (inactive) | > 94.2 µM (inactive) |
| O=S1(=O)c2ccccc2N=C(c2ccccc2Cl)CC1c1ccc(F)cc1 (stereo unspecified) | 15.2 µM (inactive) | 15.8 µM (inactive) | 11.9 µM (inactive) | 17.7 µM (inactive) | 14.4 µM (inactive) | 18.1 µM (inactive) |  | 19 µM (inactive) |  | 22.5 µM (inactive) | 16.7 µM (inactive) | 15.1 µM (inactive) | 17.1 µM (inactive) | 18.5 µM (inactive) | > 10 µM (inactive) | 18.4 µM (inactive) |
| C/C(=N\NC(=O)c1ccccc1O)C1=CNc2ccccc2S1 | 4.05 µM (inactive) | 2.44 µM (inactive) | 3.1 µM (inactive) |  | 6.38 µM (inactive) | 15.3 µM (inactive) | 7.85 µM (inactive) | 6.65 µM (inactive) | 3.82 µM (inactive) | 5.57 µM (inactive) | 3.3 µM (inactive) | 5.87 µM (inactive) | 3.6 µM (inactive) | 4 µM (inactive) | 4.59 µM (inactive) | 5.85 µM (inactive) |
| Nc1nc(SCc2ccc([N+](=O)[O-])cc2)nc2c1ncn2C1OC(CO)C(O)C1O (stereo unspecified) | 96.6 µM (inactive) |  | > 100 µM (inactive) |  |  | > 100 µM (inactive) | > 100 µM (inactive) |  | > 100 µM (inactive) | > 100 µM (inactive) | > 100 µM (inactive) | > 100 µM (inactive) | > 100 µM (inactive) | > 100 µM (inactive) | > 100 µM (inactive) | > 100 µM (inactive) |
| CN(C)C(=N)NC(N)=S | > 100 µM (inactive) | > 100 µM (inactive) | > 100 µM (inactive) | > 100 µM (inactive) | > 100 µM (inactive) | > 100 µM (inactive) | > 100 µM (inactive) | > 100 µM (inactive) | > 100 µM (inactive) | > 100 µM (inactive) | > 100 µM (inactive) | > 100 µM (inactive) | > 100 µM (inactive) | > 100 µM (inactive) | > 100 µM (inactive) | > 100 µM (inactive) |
| COc1cc2c(c(OC)c1OC)-c1ccc(SC)c(=O)cc1C(CO)C2 (stereo unspecified) | 0.335 µM (active) | 0.0414 µM (active) | 0.0578 µM (active) | 0.451 µM (active) | 0.634 µM (active) | 0.603 µM (active) | 0.134 µM (active) | 0.103 µM (active) | 0.0203 µM (active) |  | 0.22 µM (active) | 0.246 µM (active) | 0.307 µM (active) | 0.184 µM (active) | 0.233 µM (active) | 0.769 µM (active) |
| C=CCOC1=C2CC[C@H](O)[C@@]2(C)CCC1=O | > 100 µM (inactive) | > 100 µM (inactive) | > 100 µM (inactive) | > 100 µM (inactive) | > 100 µM (inactive) | > 100 µM (inactive) | > 100 µM (inactive) | > 100 µM (inactive) | > 100 µM (inactive) | > 100 µM (inactive) | > 100 µM (inactive) | > 100 µM (inactive) |  | > 100 µM (inactive) | > 100 µM (inactive) | > 100 µM (inactive) |
| CC(=O)OCC1OC(n2c(=S)n(-c3ccccc3)c(=O)c3cc(Br)ccc32)C(OC(C)=O)C(OC(C)=O)C1OC(C)=O (stereo unspecified) | > 100 µM (inactive) | > 100 µM (inactive) | > 100 µM (inactive) |  | > 100 µM (inactive) | > 100 µM (inactive) | > 100 µM (inactive) | > 100 µM (inactive) |  |  | > 100 µM (inactive) | > 100 µM (inactive) | > 100 µM (inactive) | > 100 µM (inactive) | > 100 µM (inactive) |  |
| COc1ccc(N2C(=O)c3c(c4[nH]c5ccccc5c4c4ccc(C(C)(C)C)cc34)C2=O)cc1 | 64 µM (inactive) | 20.1 µM (inactive) | > 100 µM (inactive) | 14.7 µM (inactive) | 42 µM (inactive) | 64 µM (inactive) |  | 40.3 µM (inactive) | 21.2 µM (inactive) | 51.4 µM (inactive) | > 100 µM (inactive) | 22.8 µM (inactive) | 20 µM (inactive) | 40.4 µM (inactive) | 42.8 µM (inactive) | 20.3 µM (inactive) |
| Cn1ncc(=S)[nH]c1=S | > 100 µM (inactive) | > 100 µM (inactive) |  | > 100 µM (inactive) |  | > 100 µM (inactive) |  | > 100 µM (inactive) |  | > 100 µM (inactive) | > 100 µM (inactive) | > 100 µM (inactive) | > 100 µM (inactive) | > 100 µM (inactive) | > 100 µM (inactive) | > 100 µM (inactive) |
| Cc1cccc(-c2nnc(S)[nH]2)c1 | > 100 µM (inactive) | > 100 µM (inactive) | > 100 µM (inactive) | > 100 µM (inactive) | > 100 µM (inactive) | > 100 µM (inactive) | > 100 µM (inactive) | > 100 µM (inactive) | > 100 µM (inactive) | > 100 µM (inactive) |  | > 100 µM (inactive) | > 100 µM (inactive) | > 100 µM (inactive) | > 100 µM (inactive) | > 100 µM (inactive) |
| O=c1[nH]c2c(nc1NC13CC4CC(CC(C4)C1)C3)c(=O)oc1ccccc12 | > 100 µM (inactive) | > 100 µM (inactive) | > 100 µM (inactive) | > 100 µM (inactive) | 2.46 µM (inactive) | > 100 µM (inactive) | > 100 µM (inactive) | 34.3 µM (inactive) | > 100 µM (inactive) | > 100 µM (inactive) | 31.6 µM (inactive) | 16.6 µM (inactive) | 26.2 µM (inactive) | 70.3 µM (inactive) | 50.1 µM (inactive) |  |
| Cc1noc(C)c1C1=CCCCc2ccccc21 | > 100 µM (inactive) | 64.3 µM (inactive) | > 100 µM (inactive) | 26.5 µM (inactive) |  | 63.4 µM (inactive) | > 100 µM (inactive) | 79.6 µM (inactive) | 16.6 µM (inactive) |  |  | > 100 µM (inactive) | > 100 µM (inactive) | > 100 µM (inactive) | > 100 µM (inactive) | > 100 µM (inactive) |
| CCOC(=O)C(=O)C1C(=O)Nc2ccccc21 (stereo unspecified) | > 100 µM (inactive) | > 100 µM (inactive) | > 100 µM (inactive) | 50.8 µM (inactive) | > 100 µM (inactive) | > 100 µM (inactive) | > 100 µM (inactive) | > 100 µM (inactive) |  | > 100 µM (inactive) | > 100 µM (inactive) | > 100 µM (inactive) | > 100 µM (inactive) | > 100 µM (inactive) | > 100 µM (inactive) | > 100 µM (inactive) |
| CC1=Nn2c(nnc2-c2ccccc2Cl)NC(C)(C)C1 | > 100 µM (inactive) | > 100 µM (inactive) |  | > 100 µM (inactive) | > 100 µM (inactive) | > 100 µM (inactive) | > 100 µM (inactive) | > 100 µM (inactive) | 25.5 µM (inactive) | > 100 µM (inactive) | > 100 µM (inactive) | 81.7 µM (inactive) | > 100 µM (inactive) | > 100 µM (inactive) | > 100 µM (inactive) | > 100 µM (inactive) |
| Cc1nc(-n2nc(-c3ccccc3)cc2-c2ccccc2)sc1C(=O)/C=C/c1ccc(Cl)cc1 | 25.6 µM (inactive) | 14.1 µM (inactive) | 20.1 µM (inactive) | 18.4 µM (inactive) | 17.5 µM (inactive) | 13.4 µM (inactive) | 14.4 µM (inactive) |  |  | 38.1 µM (inactive) | 13.9 µM (inactive) | 15.8 µM (inactive) | 16.3 µM (inactive) | 25.2 µM (inactive) | 13.3 µM (inactive) |  |
